Assay results: ChEMBL document CHEMBL4699440, “Comprehensive review on the anti-bacterial activity of 1,2,3-triazole hybrids” (Eur J Med Chem, 2019)
In brackets after ≈: the same amount, converted by molar mass. Each block holds one compound with its values, some of them ahead of it.

Tests used:
[1] = system: Candida albicans; test: Antifungal activity against Candida albicans RCMB-05036 assessed as diameter of inhibition zone at 5 mg/ml by diffusion technique; assay type: functional; conditions: read-out: DIZ
[2] = system: Aspergillus fumigatus; test: Antifungal activity against Aspergillus fumigatus RCMB-02568 assessed as diameter of inhibition zone at 5 mg/ml by diffusion technique; assay type: functional; conditions: read-out: DIZ
[3] = system: Syncephalastrum racemosum; test: Antifungal activity against Syncephalastrum racemosum RCMB-05922 assessed as diameter of inhibition zone at 5 mg/ml by diffusion technique; assay type: functional; conditions: read-out: DIZ
[4] = system: Geotrichum candidum; test: Antifungal activity against Geotrichum candidum RCMB-05097 assessed as diameter of inhibition zone at 5 mg/ml by diffusion technique; assay type: functional; conditions: read-out: DIZ
[5] = system: Bacillus subtilis; test: Antibacterial activity against Bacillus subtilis NCIM-2162 incubated for 12 hrs; assay type: functional
[6] = system: Pseudomonas fluorescens; test: Antibacterial activity against Pseudomonas fluorescence NCIM-2059 incubated for 8 hrs; assay type: functional
[7] = system: Escherichia coli; test: Antibacterial activity against Escherichia coli NCIM-2576 incubated for 8 hrs; assay type: functional
[8] = system: Staphylococcus aureus; test: Antibacterial activity against Staphylococcus aureus NCIM-2602 incubated for 12 hrs; assay type: functional
[9] = system: Aspergillus brasiliensis; test: Antifungal activity against Aspergillus brasiliensis MTCC 1344 incubated for 7 days by microdilution method; assay type: functional; conditions: MTCC 1344, 168 h, time 7 day
[10] = system: Staphylococcus aureus; test: Antibacterial activity against Staphylococcus aureus MTCC 7443 incubated for 24 hrs by two-fold serial dilution method; assay type: functional
[11] = system: Candida albicans; test: Antifungal activity against Candida albicans MTCC 227 incubated for 2 days by microdilution method; assay type: functional; conditions: MTCC 227, 48 h, time 2 day
[12] = system: Bacillus subtilis; test: Antibacterial activity against Bacillus subtilis MTCC 441 incubated for 24 hrs by two-fold serial dilution method; assay type: functional
[13] = system: Pseudomonas aeruginosa; test: Antibacterial activity against Pseudomonas aeruginosa MTCC 424 incubated for 24 hrs by two-fold serial dilution method; assay type: functional
[14] = system: Pseudomonas aeruginosa; test: Antibacterial activity against Pseudomonas aeruginosa RCMB-010043 assessed as diameter of inhibition zone at 5 mg/ml by diffusion technique; assay type: functional; conditions: read-out: DIZ
[15] = system: Bacillus cereus; test: Antibacterial activity against Bacillus cereus RCMB-010067 assessed as diameter of inhibition zone at 5 mg/ml by diffusion technique; assay type: functional; conditions: read-out: DIZ
[16] = system: Staphylococcus aureus; test: Antibacterial activity against Staphylococcus aureus RCMB-010010 assessed as diameter of inhibition zone at 5 mg/ml by diffusion technique; assay type: functional; conditions: read-out: DIZ
[17] = system: Escherichia coli; test: Antibacterial activity against Escherichia coli RCMB-010052 assessed as diameter of inhibition zone at 5 mg/ml by diffusion technique; assay type: functional; conditions: read-out: DIZ
[18] = system: HepG2; test: Anticancer activity against human HepG2 cells by MTT assay; assay type: functional, cell-based
[19] = system: Proteus vulgaris; test: Antibacterial activity against Proteus vulgaris ATCC 4636 assessed as inhibition zone; assay type: functional
[20] = system: Pseudomonas aeruginosa; test: Antibacterial activity against Pseudomonas aeruginosa ATCC 27853 assessed as inhibition zone; assay type: functional
[21] = system: Bacillus spizizenii; test: Antibacterial activity against Bacillus subtilis ATCC 6633 assessed as inhibition zone; assay type: functional
[22] = system: Escherichia coli; test: Antibacterial activity against Escherichia coli ATCC 25922 assessed as inhibition zone; assay type: functional
[23] = system: Staphylococcus aureus; test: Antibacterial activity against Staphylococcus aureus ATCC 25923 assessed as inhibition zone; assay type: functional

Structure (SMILES): C[C@@H]1[C@H](O)[C@@H](C)/C=C/C=C/C=C/C=C/C=C/C=C/C=C/[C@H](O[C@@H]2O[C@H](C)[C@@H](O)[C@H](N)[C@@H]2O)C[C@@H]2O[C@](O)(C[C@@H](O)C[C@@H](O)[C@H](O)CC[C@@H](O)C[C@@H](O)CC(=O)O[C@H]1C)C[C@H](O)[C@H]2C(=O)O [AMPHOTERICIN B]
zone of inhibition at 5000 µg/mL [1]: 19.7 mm
zone of inhibition at 5000 µg/mL [2]: 19.7 mm
zone of inhibition at 5000 µg/mL [3]: 19.7 mm
zone of inhibition at 5000 µg/mL [4]: 19.7 mm

MIC90 [5]: 4.5 µg/mL (≈ 12.1 µM)
MIC90 [6]: 4.5 µg/mL (≈ 12.1 µM)
MIC90 [7]: 4.5 µg/mL (≈ 12.1 µM)
MIC90 [8]: 4.5 µg/mL (≈ 12.1 µM)
Structure (SMILES): Fc1ccc(-c2cnnn2Cc2csc(-c3ccc(Cl)cc3)n2)cc1

MIC [9]: 0.167 µM (≈ 0.1 µg/mL)
MIC [10]: 0.167 µM (≈ 0.1 µg/mL)
MIC [11]: 0.167 µM (≈ 0.1 µg/mL)
MIC [12]: 0.167 µM (≈ 0.1 µg/mL)
MIC [13]: 0.167 µM (≈ 0.1 µg/mL)
Structure (SMILES): COc1ccc(NC(=O)Cn2cc(COc3ccc(OCc4cn(CC(=O)Nc5ccc(OC)cc5)nn4)cc3)nn2)cc1

Structure (SMILES): Cc1ccc(-n2nc(N)c(C(=O)NCCNC(=O)c3nn(-c4ccc(C)cc4)nc3N)n2)cc1
zone of inhibition at 5000 µg/mL [14]: 8.3 mm
zone of inhibition at 5000 µg/mL [1]: 8.3 mm
zone of inhibition at 5000 µg/mL [15]: 8.3 mm
zone of inhibition at 5000 µg/mL [2]: 8.3 mm
zone of inhibition at 5000 µg/mL [3]: 8.3 mm
zone of inhibition at 5000 µg/mL [16]: 8.3 mm
zone of inhibition at 5000 µg/mL [4]: 8.3 mm
zone of inhibition at 5000 µg/mL [17]: 8.3 mm

MIC [9]: 0.0928 µM (≈ 0.05 µg/mL)
MIC [10]: 0.0928 µM (≈ 0.05 µg/mL)
MIC [11]: 0.0928 µM (≈ 0.05 µg/mL)
MIC [12]: 0.0928 µM (≈ 0.05 µg/mL)
MIC [13]: 0.0928 µM (≈ 0.05 µg/mL)
Structure (SMILES): O=C(Cn1cc(COc2ccc(OCc3cn(CC(=O)Nc4ccccc4)nn3)cc2)nn1)Nc1ccccc1

Structure (SMILES): CC[C@]1(O)C[C@@H]2CN(CCc3c([nH]c4ccccc34)[C@@](C(=O)OC)(c3cc4c(cc3OC)N(C)[C@H]3[C@@](O)(C(=O)OC)[C@H](OC(C)=O)[C@]5(CC)C=CCN6CC[C@]43[C@@H]65)C2)C1 [VINBLASTINE]
IC50 [18]: 4.6 µg/mL (≈ 5.67 µM)

Structure (SMILES): CC(O)C(=O)O.CCOc1ccc2nc3cc(N)ccc3c(N)c2c1
inhibition zone (IZ) [19]: 12 mm
inhibition zone (IZ) [20]: 12 mm
inhibition zone (IZ) [21]: 12 mm
inhibition zone (IZ) [22]: 12 mm
inhibition zone (IZ) [23]: 12 mm

Structure (SMILES): O=C(OCc1cn(Cc2cccc(F)c2)nn1)c1cccc2c(=O)c3ccccc3[nH]c12
inhibition zone (IZ) [19]: 9.5 mm
inhibition zone (IZ) [20]: 9.5 mm
inhibition zone (IZ) [21]: 9.5 mm
inhibition zone (IZ) [22]: 9.5 mm
inhibition zone (IZ) [23]: 9.5 mm
